Assay results reported in ChEMBL document CHEMBL4811302, “Solid-phase synthesis of curcumin mimics and their anticancer activity against human pancreatic, prostate, and colorectal cancer cell lines” (Bioorg Med Chem, 2021).
The source made the active and inactive calls. The calls are words filed in the database; no cut-off is given here.

What was measured:
PANC-1 [1] = test: Antiproliferative activity against human PANC-1 cells assessed as cell death at 100 uM incubated for 72 hrs by trypan blue assay relative to control; assay type: functional, cell-based
SW480 [2] = test: Antiproliferative activity against human SW480 cells assessed as reduction in cell growth at 100 uM incubated for 72 hrs by trypan blue assay relative to control; assay type: functional
PANC-1 [3] = test: Antiproliferative activity against human PANC-1 cells assessed as reduction in cell growth at 100 uM incubated for 72 hrs by trypan blue assay relative to control; assay type: functional
PC-3 [4] = test: Antiproliferative activity against human PC-3 cells assessed as reduction in cell growth at 100 uM incubated for 72 hrs by trypan blue assay relative to control; assay type: functional
[5] = Stability of compound in alkaline phosphatase by HPLC analysis; assay type: ADME
[6] = Stability of compound in simulated intestinal fluid assessed as parent compound remaining at pH 6.8 at 1 mM measured after 48 hrs by HPLC analysis; assay type: ADME; conditions: simulated gi fluid, pH 6.8, 48 h, 1000 µM
[7] = Stability of compound in human serum assessed as parent compound remaining measured upto 96 hrs by HPLC analysis; assay type: ADME, cell-free
[8] = Stability of compound in simulated gastric fluid assessed as drug degradation at pH 1.2 at 1 mM measured after 48 hrs by HPLC analysis; assay type: ADME; conditions: read-out: Drug degradation
SW480 [9] = test: Antiproliferative activity against human SW480 cells assessed as cell death at 100 uM incubated for 72 hrs by trypan blue assay relative to control; assay type: functional, cell-based
PC-3 [10] = test: Antiproliferative activity against human PC-3 cells assessed as cell death at 100 uM incubated for 72 hrs by trypan blue assay (reference value: 3%); assay type: functional

OCCc1ccc(O)c(O)c1 [HYDROXYTYROSOL]
Activity (PANC-1 [1]): Active | inhibition at 100 µM (SW480 [2]): 38% | inhibition at 100 µM (PANC-1 [3]): 15% | inhibition at 100 µM (PC-3 [4]): 33%

COc1cc(CCOP(=O)([O-])OCCc2ccc(O)c(O)c2)ccc1O.[Na+]
Stabilty [5]: Stable | Activity (PANC-1 [1]): Active | inhibition at 100 µM (SW480 [2]): 15% | inhibition (PANC-1 [3]): inactive | Stabilty [6]: Stable | Stabilty [7]: Stable | inhibition (PC-3 [4]): Active | degraded at 48 h, 1000 µM [8]: < 5% | Activity (SW480 [9]): Active | Activity (PC-3 [10]): Active

COc1cc(CCOP(=O)([O-])OCCc2ccc(O)c(OC)c2)ccc1O.[Na+]
Stabilty [5]: Stable | Activity (PANC-1 [1]): Active | inhibition (SW480 [2]): Active | inhibition (PANC-1 [3]): inactive | Stabilty [6]: Stable | Stabilty [7]: Stable | inhibition (PC-3 [4]): Active | degraded at 48 h, 1000 µM [8]: < 5% | Activity (PC-3 [10]): Active

OCCc1ccc(O)cc1 [TYROSOL]
Activity (PANC-1 [1]): Active | inhibition at 100 µM (SW480 [2]): 12% | inhibition (PANC-1 [3]): inactive | inhibition at 100 µM (PC-3 [4]): 13% | Activity (PC-3 [10]): 7%

O=P([O-])(OCCc1ccc(O)cc1)OCCc1ccc(O)cc1.[Na+]
Stabilty [5]: Stable | Activity (PANC-1 [1]): Active | inhibition (SW480 [2]): Active | inhibition (PANC-1 [3]): inactive | Stabilty [6]: Stable | Stabilty [7]: Stable | inhibition (PC-3 [4]): Active | degraded at 48 h, 1000 µM [8]: < 5% | Activity (PC-3 [10]): Active

O=P([O-])(OCCc1ccc(O)c(O)c1)OCCc1ccc(O)c(O)c1.[Na+]
Stabilty [5]: Stable | Activity (PANC-1 [1]): Active | inhibition at 100 µM (SW480 [2]): 25% | inhibition (PANC-1 [3]): inactive | Stabilty [6]: Stable | Stabilty [7]: Stable | inhibition (PC-3 [4]): Active | degraded at 48 h, 1000 µM [8]: < 5% | Activity (SW480 [9]): Active | Activity (PC-3 [10]): Active

O=P([O-])(OCCc1ccc(O)cc1)OCCc1ccc(O)c(O)c1.[Na+]
Stabilty [5]: Stable | Activity (PANC-1 [1]): Active | inhibition (SW480 [2]): Active | inhibition (PANC-1 [3]): inactive | Stabilty [6]: Stable | Stabilty [7]: Stable | inhibition (PC-3 [4]): Active | degraded at 48 h, 1000 µM [8]: < 5% | Activity (PC-3 [10]): Active

COc1cc(CCO)ccc1O
Activity (PANC-1 [1]): Active | inhibition at 100 µM (SW480 [2]): 12% | inhibition (PANC-1 [3]): inactive | inhibition (PC-3 [4]): inactive | Activity (PC-3 [10]): Active

COc1cc(CCOP(=O)([O-])OCCc2ccc(O)cc2)ccc1O.[Na+]
Stabilty [5]: Stable | Activity (PANC-1 [1]): Active | inhibition (SW480 [2]): Active | inhibition (PANC-1 [3]): inactive | Stabilty [6]: Stable | Stabilty [7]: Stable | inhibition at 100 µM (PC-3 [4]): 28% | degraded at 48 h, 1000 µM [8]: < 5% | Activity (PC-3 [10]): 23%
